According to PubChem BioAssay AID248 (DTP/NCI, 2004):
“And” between values parts separate entries of the source, which are not always exact repeats. Equal values may be shown once. Inconclusive results and toxic doses are left out.

Test system: L1210 leukemia ip in BDF1 mice, survival T/C
Test: NCI In Vivo Anticancer Drug Screen. Data for tumor model L1210 Leukemia (intraperitoneal) in B6D2F1 (BDF1) mice
Conditions: endpoint: mean survival time, higher = longer survival
Outline: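 Transplantable tumor model; survival measured in treated vs vehicle control mice. Value = treated/control.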

[1] = dose: 100.0 mg/kg/injection, schedule: Q04DX002 (ip), vehicle: Klucel (hydroxypropylcellulose) (HPC)
[2] = dose: 200.0 mg/kg/injection, schedule: Q04DX002 (ip), vehicle: Klucel (hydroxypropylcellulose) (HPC)

For `Cn1c(CCCC(=O)O)nc2cc(N(CCCl)CCCl)ccc21`, the T/C (dose: 2.5 mg/kg/injection, schedule: Q01DX001 (ip), vehicle: other) was 101 % of control, the T/C (dose: 2.5 mg/kg/injection, schedule: Q01DX009 (ip), vehicle: other) was 111 % of control and the T/C (dose: 4.37 mg/kg/injection, schedule: Q01DX001 (ip), vehicle: saline) was 106 % of control. For the same molecule, the T/C (dose: 4.37 mg/kg/injection, schedule: Q04DX003 (ip), vehicle: saline) was 115 % of control, the T/C (dose: 5.0 mg/kg/injection, schedule: Q01DX001 (ip), vehicle: other) was 109 % of control and the T/C (dose: 5.0 mg/kg/injection, schedule: Q01DX009 (ip), vehicle: Klucel (hydroxypropylcellulose) (HPC)) was 117 % of control. The T/C (dose: 5.0 mg/kg/injection, schedule: Q01DX009 (ip), vehicle: other) was 117 % of control, the T/C (dose: 5.0 mg/kg/injection, schedule: Q04DX003 (ip), vehicle: other) was 120 % of control and the T/C (dose: 6.6 mg/kg/injection, schedule: Q01DX009 (ip), vehicle: Klucel (hydroxypropylcellulose) (HPC)) was 110 % of control. The T/C (dose: 8.75 mg/kg/injection, schedule: Q01DX001 (ip), vehicle: saline) was 117 % of control, the T/C (dose: 8.75 mg/kg/injection, schedule: Q04DX003 (ip), vehicle: saline) was 123 % of control and the T/C (dose: 10.0 mg/kg/injection, schedule: Q01DX001 (ip), vehicle: other) was 111 % of control and 124 % of control. The T/C (dose: 10.0 mg/kg/injection, schedule: Q01DX009 (ip), vehicle: acetone) was 114 % of control, the T/C (dose: 10.0 mg/kg/injection, schedule: Q01DX009 (ip), vehicle: other) was 120 % of control and the T/C (dose: 10.0 mg/kg/injection, schedule: Q04DX003 (ip), vehicle: Klucel (hydroxypropylcellulose) (HPC)) was 117 % of control. For the same molecule, the T/C (dose: 10.0 mg/kg/injection, schedule: Q04DX003 (ip), vehicle: other) was 118 % of control, the T/C (dose: 12.5 mg/kg/injection, schedule: Q01DX001 (ip), vehicle: saline) was 116 % of control and the T/C (dose: 17.5 mg/kg/injection, schedule: Q01DX001 (ip), vehicle: saline) was 116 % of control. The T/C (dose: 17.5 mg/kg/injection, schedule: Q04DX003 (ip), vehicle: saline) was 116 % of control, the T/C (dose: 20.0 mg/kg/injection, schedule: Q01DX001 (ip), vehicle: carboxymethylcellulose (CMC)) was 117 % of control and the T/C (dose: 20.0 mg/kg/injection, schedule: Q01DX001 (ip), vehicle: other) was 122 % of control. The T/C (dose: 20.0 mg/kg/injection, schedule: Q01DX009 (ip), vehicle: Klucel (hydroxypropylcellulose) (HPC)) was 117 % of control, the T/C (dose: 20.0 mg/kg/injection, schedule: Q01DX009 (ip), vehicle: acetone) was 110 % of control and the T/C (dose: 20.0 mg/kg/injection, schedule: Q04DX003 (ip), vehicle: Klucel (hydroxypropylcellulose) (HPC)) was 119 % of control. The T/C (dose: 20.0 mg/kg/injection, schedule: Q04DX003 (ip), vehicle: other) was 118 % of control, the T/C (dose: 25.0 mg/kg/injection, schedule: Q01DX001 (ip), vehicle: other) was 119 % of control and the T/C (dose: 25.0 mg/kg/injection, schedule: Q01DX001 (ip), vehicle: saline) was 115 % of control. For the same molecule, the T/C (dose: 25.0 mg/kg/injection, schedule: Q01DX009 (ip), vehicle: Klucel (hydroxypropylcellulose) (HPC)) was 89 % of control, the T/C (dose: 26.4 mg/kg/injection, schedule: Q04DX003 (ip), vehicle: saline) was 124 % of control and the T/C (dose: 35.0 mg/kg/injection, schedule: Q01DX001 (ip), vehicle: Klucel (hydroxypropylcellulose) (HPC)) was 115 % of control. For the same molecule, the T/C (dose: 40.0 mg/kg/injection, schedule: Q01DX001 (ip), vehicle: carboxymethylcellulose (CMC)) was 117 % of control, the T/C (dose: 40.0 mg/kg/injection, schedule: Q01DX009 (ip), vehicle: Klucel (hydroxypropylcellulose) (HPC)) was 87 % of control and the T/C (dose: 40.0 mg/kg/injection, schedule: Q01DX009 (ip), vehicle: other) was 88 % of control. For the same molecule, the T/C (dose: 40.0 mg/kg/injection, schedule: Q04DX003 (ip), vehicle: other) was 115 % of control and 123 % of control, the T/C (dose: 40.0 mg/kg/injection, schedule: Q04DX003 (ip), vehicle: saline) was 119 % of control and the T/C (dose: 50.0 mg/kg/injection, schedule: Q01DX001 (ip), vehicle: Klucel (hydroxypropylcellulose) (HPC)) was 123 % of control. The T/C (dose: 50.0 mg/kg/injection, schedule: Q01DX001 (ip), vehicle: other) was 156 % of control, the T/C (dose: 75.0 mg/kg/injection, schedule: Q01DX001 (ip), vehicle: Klucel (hydroxypropylcellulose) (HPC)) was 112 % of control and the T/C (dose: 75.0 mg/kg/injection, schedule: Q01DX001 (ip), vehicle: other) was 110 % of control. For the same molecule, the T/C (dose: 80.0 mg/kg/injection, schedule: Q01DX001 (ip), vehicle: carboxymethylcellulose (CMC)) was 112 % of control, the T/C (dose: 80.0 mg/kg/injection, schedule: Q01DX001 (ip), vehicle: other) was 114 % of control and the T/C (dose: 80.0 mg/kg/injection, schedule: Q04DX003 (ip), vehicle: other) was 87 % of control and 91 % of control.

With `CC(=O)[C@]1(O)Cc2c(O)c3c(c(O)c2[C@@H](OC2CC(N)C(O)C(C)O2)C1)C(=O)c1c(O)cccc1C3=O` (stereo partly drawn) the T/C (dose: 0.05 mg/kg/injection, schedule: Q03DX003 (ip), vehicle: saline) was 109 % of control, the T/C (dose: 0.1 mg/kg/injection, schedule: Q03DX003 (ip), vehicle: saline) was 123 % of control and the T/C (dose: 0.2 mg/kg/injection, schedule: Q01DX001 (ip), vehicle: saline) was 122 % of control. For the same molecule, the T/C (dose: 0.4 mg/kg/injection, schedule: Q01DX009 (ip), vehicle: saline) was 154 % of control, the T/C (dose: 0.4 mg/kg/injection, schedule: Q03DX003 (ip), vehicle: saline) was 157 % of control and the T/C (dose: 0.8 mg/kg/injection, schedule: Q01DX001 (ip), vehicle: saline) was 192 % of control. For the same molecule, the T/C (dose: 0.8 mg/kg/injection, schedule: Q01DX009 (ip), vehicle: saline) was 98 % of control, the T/C (dose: 0.8 mg/kg/injection, schedule: Q03DX003 (ip), vehicle: saline) was 159 % of control and the T/C (dose: 1.6 mg/kg/injection, schedule: Q01DX001 (ip), vehicle: saline) was 166 % of control.

In the case of `O/N=C\c1ccccc1`, the T/C (dose: 50.0 mg/kg/injection, schedule: Q01DX009 (ip), vehicle: Klucel (hydroxypropylcellulose) (HPC)) is reported as 92 % of control and the T/C (dose: 100.0 mg/kg/injection, schedule: Q01DX009 (ip), vehicle: Klucel (hydroxypropylcellulose) (HPC)) is reported as 86 % of control.

With `Nc1scc2[nH]c3ccccc3[n+]12` the T/C (dose: 100.0 mg/kg/injection, schedule: Q04DX002 (ip), vehicle: saline) was 100 % of control and the T/C (dose: 200.0 mg/kg/injection, schedule: Q04DX002 (ip), vehicle: saline) was 104 % of control.

For `Nc1nc2nnc(CNc3ccc(C(=O)NC(CCC(=O)O)C(=O)O)cc3)nc2c(=O)[nH]1` (stereo not drawn), the T/C (dose: 100.0 mg/kg/injection, schedule: Q01DX001 (ip), vehicle: Klucel (hydroxypropylcellulose) (HPC)) was 94 % of control and the T/C (dose: 200.0 mg/kg/injection, schedule: Q01DX001 (ip), vehicle: Klucel (hydroxypropylcellulose) (HPC)) was 103 % of control.

In the case of `CCCCNC(N)=S`, the T/C (dose: 100.0 mg/kg/injection, schedule: Q04DX003 (ip), vehicle: Klucel (hydroxypropylcellulose) (HPC)) is reported as 98 % of control, the T/C (dose: 200.0 mg/kg/injection, schedule: Q04DX003 (ip), vehicle: Klucel (hydroxypropylcellulose) (HPC)) is reported as 104 % of control and the T/C (dose: 400.0 mg/kg/injection, schedule: Q04DX003 (ip), vehicle: Klucel (hydroxypropylcellulose) (HPC)) is reported as 102 % of control.

With `COC(=O)c1ccc(O)c([N+](=O)[O-])c1` the T/C (dose: 50.0 mg/kg/injection, schedule: Q01DX009 (ip), vehicle: saline with Tween-80) was 103 % of control, the T/C (dose: 100.0 mg/kg/injection, schedule: Q01DX009 (ip), vehicle: saline with Tween-80) was 94 % of control and the T/C (dose: 200.0 mg/kg/injection, schedule: Q01DX009 (ip), vehicle: saline with Tween-80) was 89 % of control.

With `O=C(O)c1cc(Br)cc(Cl)c1Br` the T/C [1] was 96 % of control and the T/C [2] was 96 % of control.

With `CS(=O)(=O)OCC#CCOS(C)(=O)=O` the T/C (dose: 8.0 mg/kg/injection, schedule: Q01DX Z (ip), vehicle: saline) was 100 % of control, the T/C (dose: 16.0 mg/kg/injection, schedule: Q01DX Z (ip), vehicle: saline) was 109 % of control and the T/C (dose: 32.0 mg/kg/injection, schedule: Q01DX Z (ip), vehicle: saline) was 105 % of control. For the same molecule, the T/C (dose: 64.0 mg/kg/injection, schedule: Q01DX Z (ip), vehicle: saline) was 117 % of control.

In the case of `O=NN(CCN(N=O)c1ccccc1)c1ccccc1`, the T/C (dose: 100.0 mg/kg/injection, schedule: Q01DX001 (ip), vehicle: other) is reported as 97 % of control, the T/C (dose: 100.0 mg/kg/injection, schedule: Q04DX003 (ip), vehicle: other) is reported as 104 % of control and the T/C (dose: 200.0 mg/kg/injection, schedule: Q01DX001 (ip), vehicle: other) is reported as 97 % of control. The T/C (dose: 200.0 mg/kg/injection, schedule: Q04DX003 (ip), vehicle: other) was 101 % of control, the T/C (dose: 400.0 mg/kg/injection, schedule: Q01DX001 (ip), vehicle: other) was 92 % of control and the T/C (dose: 400.0 mg/kg/injection, schedule: Q04DX003 (ip), vehicle: other) was 97 % of control.

With `CN(CC#CCOc1ccc(Cl)cc1Cl)c1ccccc1` the T/C [1] was 102 % of control, the T/C [2] was 98 % of control and the T/C (dose: 400.0 mg/kg/injection, schedule: Q04DX002 (ip), vehicle: Klucel (hydroxypropylcellulose) (HPC)) was 91 % of control.
